Assay results published in the OligoGym collection.
Where “and” joins values, the source holds several entries; their conditions need not be identical. Identical values can stand only once. After the bases stand the sugars from the 5' end (letter, count) and the backbone: PS all phosphorothioate, else s phosphorothioate and o phosphodiester by linkage. Methylation of C is not given here. k = constrained ethyl (cEt); d = 2'-deoxy (DNA)

Target: MALAT1
Conditions: ASO, A431, 0.005 µM

Row | Sequence | target mRNA inhibition
1 | ACTGATTTTAAGGTTG (sugars k3 d10 k3, PS) | 26%
2 | ACTTAAATTACTAGCG (sugars k3 d10 k3, PS) | -10%
3 | ACTTATCAATTCACCA (sugars k3 d10 k3, PS) | 28%
4 | ACTTATCTGCGGTTTC (sugars k3 d10 k3, PS) | 71% and 53%
5 | ACTTCCCCTTCTAGCT (sugars k3 d10 k3, PS) | 36%
6 | ACTTCCGTTACGAAAG (sugars k3 d10 k3, PS) | 1%
7 | ACTTTAAGCCTTCGGT (sugars k3 d10 k3, PS) | 13%
8 | ACTTTCCATTACGCAA (sugars k3 d10 k3, PS) | 9%
9 | AGAACAACTCGCATCA (sugars k3 d10 k3, PS) | 12%
10 | AGACAAGATTCATGAG (sugars k3 d10 k3, PS) | 50%
11 | AGACCAACTAAGCGAA (sugars k3 d10 k3, PS) | 38%
12 | AGACCCCTGACTTTCT (sugars k3 d10 k3, PS) | 22%
13 | AGACCTCGACACCATC (sugars k3 d10 k3, PS) | 46%
14 | AGACTGTTGCTTGTTT (sugars k3 d10 k3, PS) | 1%
15 | AGAGAACCACACACTA (sugars k3 d10 k3, PS) | 28%
16 | AGAGATACCTGTCTGA (sugars k3 d10 k3, PS) | 22%
17 | AGAGCATTGGAGATCA (sugars k3 d10 k3, PS) | 20%
18 | AGAGGGCCTCTATTGC (sugars k3 d10 k3, PS) | 33%
19 | AGATTAAAGTGTGATA (sugars k3 d10 k3, PS) | 27%
20 | AGCAGTAACATCTGAT (sugars k3 d10 k3, PS) | 41%
21 | AGCATTCCTTCGGATG (sugars k3 d10 k3, PS) | 14%
22 | AGCATTGGAGATCAGC (sugars k3 d10 k3, PS) | 36%
23 | AGCCCCCCACGGCCCG (sugars k3 d10 k3, PS) | 27%

Row | Sequence | target mRNA inhibition
24 | AGCGAATGGCTTTGTC (sugars k3 d10 k3, PS) | 5%
25 | AGCTGCAAACTTTAGA (sugars k3 d10 k3, PS) | 26%
26 | AGCTTATGGAACTTGA (sugars k3 d10 k3, PS) | 16%
27 | AGGCAAGTCCTCATTA (sugars k3 d10 k3, PS) | 16%
28 | AGGCGAGCTGAGGCTT (sugars k3 d10 k3, PS) | 19%
29 | AGGCTCGATGGAAAAA (sugars k3 d10 k3, PS) | 28%
30 | AGGCTTTAAATGACGC (sugars k3 d10 k3, PS) | -11%
31 | AGGGATTTGAACCCCG (sugars k3 d10 k3, PS) | -3%
32 | AGGGTTATGCTTATTC (sugars k3 d10 k3, PS) | 63% and 60%
33 | AGGTCATCTATTCACA (sugars k3 d10 k3, PS) | 39%
34 | AGTATCAAATTATGAC (sugars k3 d10 k3, PS) | 14%
35 | AGTCAAGCTCCTGACA (sugars k3 d10 k3, PS) | 13%
36 | AGTCCTGCGACTTGCT (sugars k3 d10 k3, PS) | 26%
37 | AGTGTTCCTGCATGTA (sugars k3 d10 k3, PS) | 31%
38 | AGTTACTCCAGCATAA (sugars k3 d10 k3, PS) | 31%
39 | AGTTTACCACCTTTTG (sugars k3 d10 k3, PS) | 23%
40 | AGTTTTCAGCAGTAGG (sugars k3 d10 k3, PS) | -21%
41 | ATAAGGACAGCTAAGA (sugars k3 d10 k3, PS) | 8%
42 | ATAATCTCCCACCTGT (sugars k3 d10 k3, PS) | 17%
43 | ATACCTTAACATCTTG (sugars k3 d10 k3, PS) | 43%
44 | ATACTATTGTCCCATA (sugars k3 d10 k3, PS) | 31%
45 | ATAGTACTATAGCATC (sugars k3 d10 k3, PS) | 30%
46 | ATATTGTGCTGTTACC (sugars k3 d10 k3, PS) | -9%

Row | Sequence | target mRNA inhibition
47 | ATCAACAAAAGCCCAC (sugars k3 d10 k3, PS) | -12%
48 | ATCAAGGATGTATATA (sugars k3 d10 k3, PS) | 0%
49 | ATCAAGGCACTGATCA (sugars k3 d10 k3, PS) | 23%
50 | ATCACTACTCCAAGCA (sugars k3 d10 k3, PS) | 20%
51 | ATCAGAACAGTACTGC (sugars k3 d10 k3, PS) | 35%
52 | ATCAGCTTCCGCTAAG (sugars k3 d10 k3, PS) | 4%
53 | ATCAGTAGTAAGAATC (sugars k3 d10 k3, PS) | 23%
54 | ATCATAATCTCCCACC (sugars k3 d10 k3, PS) | 20%
55 | ATCATATTTTAAACGG (sugars k3 d10 k3, PS) | 32%
56 | ATCATTAAGCCACTTC (sugars k3 d10 k3, PS) | 53% and 69%
57 | ATCCAAGCTACTGGCT (sugars k3 d10 k3, PS) | 40%
58 | ATCCCATCACTGAAGC (sugars k3 d10 k3, PS) | 36%
59 | ATCCCTTCAGGATCAT (sugars k3 d10 k3, PS) | 19%
60 | ATCTGATTCTAACAGC (sugars k3 d10 k3, PS) | 40%
61 | ATCTTAACTCAAAGTC (sugars k3 d10 k3, PS) | 39%
62 | ATCTTCACCACGAACT (sugars k3 d10 k3, PS) | 22%
63 | ATGAAATGCCTCTGCA (sugars k3 d10 k3, PS) | 13%
64 | ATGACCCTACTGAAGA (sugars k3 d10 k3, PS) | 15%
65 | ATGACGCAATTCTCCC (sugars k3 d10 k3, PS) | 15%
66 | ATGCCTACCGCACAGC (sugars k3 d10 k3, PS) | -8%
67 | ATGGAACTTGAATGCA (sugars k3 d10 k3, PS) | 1%
68 | ATGGACATTGCCTCTT (sugars k3 d10 k3, PS) | 37%
69 | ATGGCGGACTTTCTCC (sugars k3 d10 k3, PS) | 29%

Row | Sequence | target mRNA inhibition
70 | ATGGTAGATTCCGTAA (sugars k3 d10 k3, PS) | 14%
71 | ATTAAAGTGTGATAGT (sugars k3 d10 k3, PS) | 17%
72 | ATTATACATCAAGGAT (sugars k3 d10 k3, PS) | 17%
73 | ATTCAACTGGAAGCTC (sugars k3 d10 k3, PS) | 17%
74 | ATTCAATACTATTGTC (sugars k3 d10 k3, PS) | 24%
75 | ATTCCCACCCAAAAGC (sugars k3 d10 k3, PS) | 5%
76 | ATTCCTTATTTAGAGG (sugars k3 d10 k3, PS) | -11%
77 | ATTCTTTTCTTCGCCT (sugars k3 d10 k3, PS) | 48%
78 | ATTGGAGATCAGCTTC (sugars k3 d10 k3, PS) | 52%
79 | ATTGTCTCAATTTGGC (sugars k3 d10 k3, PS) | 63% and 84%
80 | ATTGTTTCATCCTACC (sugars k3 d10 k3, PS) | 22%
81 | ATTTACTTGCCAACAG (sugars k3 d10 k3, PS) | 47%
82 | ATTTATAGACGGAGAA (sugars k3 d10 k3, PS) | 9%
83 | ATTTTAAGGTTGCATC (sugars k3 d10 k3, PS) | 37%
84 | CAAACGAAACATTGGC (sugars k3 d10 k3, PS) | 31%
85 | CAAACTACACATGCAG (sugars k3 d10 k3, PS) | 6%
86 | CAAACTTGCCATCTAC (sugars k3 d10 k3, PS) | 11%
87 | CAAATCCTGATCTGGT (sugars k3 d10 k3, PS) | 24% and 21%
88 | CAACACCCGGAAATCG (sugars k3 d10 k3, PS) | 18%
89 | CAAGATTCATGAGTAT (sugars k3 d10 k3, PS) | 34%
90 | CAAGTTACATGTTCCC (sugars k3 d10 k3, PS) | 42%
91 | CAATATCTTAGTAACC (sugars k3 d10 k3, PS) | 29%
92 | CAATTAATGCTAGTCC (sugars k3 d10 k3, PS) | 28%

Row | Sequence | target mRNA inhibition
93 | CAATTTAGAGCTTCTC (sugars k3 d10 k3, PS) | -12%
94 | CAATTTATAGACCCCT (sugars k3 d10 k3, PS) | -6%
95 | CACAACAATTTAGAGC (sugars k3 d10 k3, PS) | -17%
96 | CACACCCAGAAGTGTT (sugars k3 d10 k3, PS) | 13%
97 | CACAGGAACAAGTCCT (sugars k3 d10 k3, PS) | 16%
98 | CACCACGAACTGCTGC (sugars k3 d10 k3, PS) | 19%
99 | CACCCAGAAGTGTTTA (sugars k3 d10 k3, PS) | -4%
100 | CACCGGAATTCGATCA (sugars k3 d10 k3, PS) | 20%
101 | CACCTTCCGCCGCCTC (sugars k3 d10 k3, PS) | 28%
102 | CACCTTCCGCCGCCTT (sugars k3 d10 k3, PS) | -25%
103 | CACCTTCGGTTTAATC (sugars k3 d10 k3, PS) | 20%
104 | CACCTTGAGTCATTTG (sugars k3 d10 k3, PS) | 37%
105 | CACTACCATATCCAAA (sugars k3 d10 k3, PS) | 23%
106 | CACTTATCCCTAACAT (sugars k3 d10 k3, PS) | 10%
107 | CACTTTCCTTGCCCAA (sugars k3 d10 k3, PS) | 69% and 61%
108 | CAGACCTGAAGTCAAG (sugars k3 d10 k3, PS) | 14%
109 | CAGCTTATGGAACTTG (sugars k3 d10 k3, PS) | -33%
110 | CAGGATCATTAAGCCA (sugars k3 d10 k3, PS) | 42%
111 | CAGGCGAGCTGAGGCT (sugars k3 d10 k3, PS) | 7%
112 | CAGGTCATCTATTCAC (sugars k3 d10 k3, PS) | 51% and 72%
113 | CAGTACGAAACTCCCC (sugars k3 d10 k3, PS) | 30%
114 | CAGTCCTAGCTTCATC (sugars k3 d10 k3, PS) | 9%
